Reference: PubChem BioAssay AID624167 (Sanford-Burnham Center for Chemical Genomics, 2012)
Activity calls are given as the source filed them.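 The calls were made as follows: active = mean IC50 for reducing PEG3 promoter reporter signal at or below a set limit, with IC50 above the limit in both counter screens; inactive = the rest, including counter screen hits.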

Assays:
PEG-3 [1] = assay: inhibition of PEG-3 promoter-driven reporter – cell-based, HeLa, luciferase, CREF/GAPDH counter-screen panel, dose response (AID 624167); conditions: HeLa PEG-Prom luciferase reporter, overnight, CREF/GAPDH counter-screens
PEG-3 [2] = biological target: PEG-3 (UniProt Q6IN02); assay: as above; conditions: HeLa PEG-Prom luciferase reporter, overnight, CREF/GAPDH counter-screens, mean of runs
[3] = run 1, dose range 1, individual replicate IC50 per panel
[4] = run 2, dose range 1, individual replicate IC50 per panel

Sequence of PEG-3 (UniProt Q6IN02) (Q6IN02 whole entry, looked up): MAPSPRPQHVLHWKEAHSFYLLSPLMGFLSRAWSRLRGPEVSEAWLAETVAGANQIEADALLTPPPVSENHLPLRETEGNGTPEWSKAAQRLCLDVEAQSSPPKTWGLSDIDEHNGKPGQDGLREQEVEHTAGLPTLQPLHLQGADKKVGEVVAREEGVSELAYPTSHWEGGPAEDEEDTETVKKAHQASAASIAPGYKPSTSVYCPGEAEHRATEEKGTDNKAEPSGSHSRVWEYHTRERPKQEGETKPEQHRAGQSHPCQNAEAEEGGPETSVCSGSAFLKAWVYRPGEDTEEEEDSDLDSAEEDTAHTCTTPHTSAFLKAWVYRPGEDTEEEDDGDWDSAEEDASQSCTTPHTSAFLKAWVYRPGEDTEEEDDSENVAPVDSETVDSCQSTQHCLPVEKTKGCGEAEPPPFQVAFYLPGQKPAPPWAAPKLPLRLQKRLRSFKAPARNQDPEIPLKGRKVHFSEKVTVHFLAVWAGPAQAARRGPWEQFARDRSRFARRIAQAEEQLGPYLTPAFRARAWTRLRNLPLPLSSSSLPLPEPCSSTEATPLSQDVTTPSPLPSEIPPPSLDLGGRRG

Row | Compound | IC50 (PEG-3 [1]; [3]) [µM] | IC50 (PEG-3 [1]; [4]) [µM] | IC50 (PEG-3 [2])
1 | COc1ccc(C(C(=O)NCC2CCCO2)N(Cc2cccs2)C(=O)c2snc(C(N)=O)c2N)cc1 (configuration not stated) | > 100 | 9.42 | inactive
2 | CN(C)CCNc1ccc(CO)c2oc3ccc(O)cc3c(=O)c12 | 20.4 | 13.5 | 16.9 µM
3 | CC(C)n1cc(CN2CCC(C(=O)Nc3cccc(-c4cccc(Cl)c4)c3)CC2)cn1 | 17.4 | 9.39 | 13.4 µM
4 | Cc1ccc2sc(N(CCCN(C)C)C(=O)c3ccc(S(=O)(=O)N4CCc5ccccc5C4)cc3)nc2c1C | 15.6 | 19.2 | 17.4 µM
5 | Cc1cc(C)nc(NC(=O)c2c(F)c(F)c(F)c(C(=O)Nc3cc(C)cc(C)n3)c2F)c1 | 20.1 | 19.5 | 19.8 µM
6 | CCOc1cc(CNCCCN2CCOCC2)ccc1OCC(=O)Nc1cccc2ccccc12 | 21.1 | 16.2 | 18.7 µM
7 | CCN1C/C(=C/c2ccc(N3CCOCC3)cc2)C(=O)/C(=C/c2ccc(N3CCOCC3)cc2)C1 | 15.9 | 13 | 14.5 µM
8 | CCN(CC)C(=O)c1ccc(NC(=O)Nc2ccccc2F)cc1 | 18.8 | 15.6 | 17.2 µM
9 | CN1OC[C@@H]2CN[C@H](c3ccc(-c4cc5ccccc5o4)cc3)C[C@@H]21 | 24.9 | 12.6 | 18.8 µM
10 | COc1ccc(Nc2oc(COc3ccccc3OC)nc2C#N)cc1 | 5.83 | 39.4 | inactive
11 | CCCCCc1ccc(OCCCC[n+]2cccc(C)c2)c(CCCCC)c1 | 16.4 | 10.7 | 13.6 µM
12 | Cc1ccc2cc3c(N)c4c(C)ccc(C)c4nc3nc2c1 | > 100 | 17.1 | inactive
13 | Cc1cccc(N=C2Sc3nc4c(C)c(C)ccc4cc3CN2CCN2CCOCC2)c1 | 29.3 | 32 | inactive
14 | Cc1ccc(N2CC(C(=O)Nc3nccs3)CC2=O)cc1Cl (configuration not stated) | 33 | 10.5 | inactive
15 | CCN(CC)CCN1CCN(c2cncc(-c3ccc4ccccc4c3)n2)CC1 | 34.4 | 11.9 | inactive
16 | Cc1cccc(/C=C2/Sc3ccc(C(=O)NCCN4CCCC4)cc3NC2=O)c1 | 20.8 | 9.95 | 15.4 µM
17 | COc1ccc(C2NCCc3c2[nH]c2ccccc32)cc1COc1ccc(F)cc1 (configuration not stated) | 16.9 | 7.75 | 12.3 µM
18 | CC(C)c1ccc(/C=N/Nc2ccc(C(=O)O)cc2)cc1 | 11.1 | 19.4 | 15.3 µM
19 | Cc1cc2c(c(/C=C/C(=O)c3ccccc3)c1)OC1(C=C2)Oc2ccccc2C(=O)N1C (configuration not stated) | 20.4 | 15.5 | 18 µM
20 | COc1ccc(-c2nsc3c(N4CCCCC4C)ncnc23)cc1 (configuration not stated) | 17.5 | 14 | 15.7 µM
21 | CC1(C)CC(NCCN2CCN(C3=CC(=C(C#N)C#N)CC(C)(C)C3)CC2)=CC(=C(C#N)C#N)C1 | > 100 | 8.4 | inactive
22 | CN(CCOc1ccc(Cl)cc1)C(=O)c1cc(-c2ccco2)nc2ccccc12 | 15.9 | 14.4 | 15.1 µM
23 | O=S(=O)(Nc1cccc2cccnc12)c1ccccc1 | > 100 | 7.43 | inactive
24 | Cc1cccc(CN2C(=O)/C(=C\c3ccc(C(=O)NCCN4CCOCC4)cc3)Sc3ccccc32)c1 | 18.2 | 22.1 | inactive
